{
  "source": "patent US20260150871A1",
  "about": "“TASTE MODIFYING COMPOSITIONS AND USES THEREOF” (Firmenich Incorporated, priority 2022, published 2026)",
  "type_in_all_cases": "in vivo",
  "key": {"Panelists [1]": {"test_system": "Panelists", "test": "Umami enhancement of MSG: panel sensory rating of aqueous sodium chloride/MSG samples", "details": "mean, scale of 0 to 10; for Lasting Umami Intensity: Sample C 3.1; for Saltiness Intensity: Sample C 3.6; for Umami Intensity: Sample C 4.0", "protocol": "A series of test samples and a comparative sample were prepared. The comparative sample (C) contained 0.3 wt % sodium chloride and 0.05 wt % MSG. Two test samples were prepared. Each test sample contained sodium chloride and MSG in the same amounts as the comparative sample plus 2 ppm of TM1 (sample S1) or 5 ppm of TM1 (sample S2). Panelists were asked to rate the intensity of certain sensory features of the samples on a scale of 0 to 10. Higher numbers indicate greater intensity."}, "Panelists [2]": {"test_system": "Panelists", "test": "Flavor modification of chicken broth: panel sensory rating", "details": "0.7 wt % sodium chloride, 0.04 wt % MSG, mean, scale of 0 to 10; for Lasting Umami Intensity: Sample C 3.1; for Umami Intensity: Sample C 4.3; for White Meat Intensity: Sample C 4.8; for Saltiness Intensity: Sample C 4.9; for Chicken Flavor Intensity: Sample C 5.3", "protocol": "A series of test samples and a comparative sample were prepared. The comparative sample (C) was a standard reconstituted chicken broth solution containing 0.7 wt % sodium chloride and 0.04 wt % MSG. Two test samples were prepared. Each test sample contained chicken broth, sodium chloride, and MSG in the same amounts as the comparative sample plus 3 ppm of TM1 (sample S1) or 5 ppm of TM1 (sample S2). Panelists were asked to rate the intensity of certain sensory features of the samples on a scale of 0 to 10. Higher numbers indicate greater intensity."}, "Panelists [3]": {"test_system": "Panelists", "test": "MSG reduction with potato crisp: panel sensory rating", "details": "Sample S1: 5 ppm TM1 on potato crisp, 2 wt % flavoring (sour cream and onion), 0.03 wt % MSG, 0.008 wt % purinic ribonucleotide, mean, scale of 0 to 10", "protocol": "(§1) A test sample and a comparative sample were prepared. The comparative (sample C) was a standard potato crisp having 2 wt % flavoring (sour cream and onion), 0.03 wt % MSG, and 0.008 wt % purinic ribonucleotide. This reflects a 75% reduction of the standard amount of MSG used in such products (0.12 wt %). The test sample contained flavoring, MSG, and purinic ribonucleotide in the same amounts as the comparative sample plus 5 ppm of TM1 (sample S1). Panelists were asked to rate the intensity of certain sensory features of the samples on a scale of 0 to 10. Higher numbers indicate greater intensity."}, "Panelists [4]": {"test_system": "Panelists", "test": "MSG reduction with soy-based vegan chicken nugget: panel sensory rating", "details": "Sample S1: 5 ppm TM1 in soy-based vegan chicken nugget, 1.68 wt % flavoring (chicken), 0.4 wt % MSG, 0.03 wt % purinic ribonucleotide, mean, scale of 0 to 10", "protocol": "as §1, with “soy-based vegan chicken nugget” for “potato crisp”, “1.68” for “2”, “(chicken), 0.4” for “(sour cream and onion), 0.03”, “0.03” for “0.008”, “ribonucleotide.” for “ribonucleotide. This reflects a 75% reduction of the standard amount of MSG used in such products (0.12 wt %).”"}, "[5]": {"details": "Sample S1: 2 ppm TM1 + 0.3 wt % sodium chloride + 0.05 wt % MSG"}, "[6]": {"details": "Sample S2: 5 ppm TM1 + 0.3 wt % sodium chloride + 0.05 wt % MSG, * significant vs C"}, "[7]": {"details": "Sample S1: 3 ppm TM1 in chicken broth, * significant vs C"}, "[8]": {"details": "Sample S2: 5 ppm TM1 in chicken broth, * significant vs C"}, "[9]": {"details": "Sample S2: 5 ppm TM1 in chicken broth"}, "[10]": {"details": "Sample C 2.1, * significant vs C"}},
  "data": [
    {"smiles": "C/C(=C\\CO)C(=O)NCCCCNC(=O)/C=C/c1ccccc1", "note": "[TM1, (E)-N-(4-cinnamamidobutyl)-4-hydroxy-2-methylbut-2-enamide]", "values": [
      {"measurement": "Lasting Umami Intensity", "setting": "Panelists [1]; Sample S1: 2 ppm TM1 + 0.3 wt % sodium chloride + 0.05 wt % MSG, * significant vs C", "value": "4.2*"},
      {"measurement": "Saltiness Intensity", "setting": "Panelists [1]; [5]", "value": 3.8},
      {"measurement": "Umami Intensity", "setting": "Panelists [1]; [5]", "value": 4.8},
      {"measurement": "Lasting Umami Intensity", "setting": "Panelists [1]; [6]", "value": "5.4*"},
      {"measurement": "Saltiness Intensity", "setting": "Panelists [1]; Sample S2: 5 ppm TM1 + 0.3 wt % sodium chloride + 0.05 wt % MSG", "value": 3.8},
      {"measurement": "Umami Intensity", "setting": "Panelists [1]; [6]", "value": "6.0*"},
      {"measurement": "Lasting Umami Intensity", "setting": "Panelists [2]; [7]", "value": "4.2*"},
      {"measurement": "Umami Intensity", "setting": "Panelists [2]; [7]", "value": "5.8*"},
      {"measurement": "White Meat Intensity", "setting": "Panelists [2]; [7]", "value": "5.8*"},
      {"measurement": "Saltiness Intensity", "setting": "Panelists [2]; Sample S1: 3 ppm TM1 in chicken broth", "value": 5.2},
      {"measurement": "Chicken Flavor Intensity", "setting": "Panelists [2]; [7]", "value": "6.0*"},
      {"measurement": "Lasting Umami Intensity", "setting": "Panelists [2]; [8]", "value": "5.4*"},
      {"measurement": "Umami Intensity", "setting": "Panelists [2]; [8]", "value": "6.2*"},
      {"measurement": "White Meat Intensity", "setting": "Panelists [2]; [9]", "value": 4.8},
      {"measurement": "Saltiness Intensity", "setting": "Panelists [2]; [9]", "value": 4.8},
      {"measurement": "Chicken Flavor Intensity", "setting": "Panelists [2]; [9]", "value": 5.8},
      {"measurement": "Lasting Umami Intensity", "setting": "Panelists [3]; [10]", "value": "2.8*"},
      {"measurement": "Sour Intensity", "setting": "Panelists [3]; [10]", "value": "2.9*"},
      {"measurement": "Saltiness Intensity", "setting": "Panelists [3]; Sample C 2.9", "value": 3.1},
      {"measurement": "Umami Intensity", "setting": "Panelists [3]; Sample C 3.0, * significant vs C", "value": "3.6*"},
      {"measurement": "Saltiness Intensity", "setting": "Panelists [4]; Sample C 4.6", "value": 4.4},
      {"measurement": "Umami Intensity", "setting": "Panelists [4]; Sample C 5.1, * significant vs C", "value": "5.8*"}
    ]}
  ]
}
